In patent US5710129A, “Inhibitors of SH2-mediated processes” (Ariad Pharmaceuticals, Inc., priority 1995, dated 1998):
“And” between values parts separate entries of the source, which are not always exact repeats. Identical values can stand only once. Like-named read-outs stand apart in the source and are kept apart here. Square brackets hold non-standard residues; d marks the D form. Peptide text beside a SMILES is read from it. * marks the point of attachment. Tyr(3,5-(NO2)2) = N[C@@H](Cc1cc([N+](=O)[O-])c(O)c([N+](=O)[O-])c1)C(=O)O; Acetyl(9-fluorenyl) = O=C(CC1c2ccccc2-c2ccccc21)*; Propanoyl(3,3-Ph2) = O=C(CC(c1ccccc1)c1ccccc1)*; Acetyl(1-naphthyl) = O=C(Cc1cccc2ccccc12)*; Acetyl(2-naphthyl) = O=C(Cc1ccc2ccccc2c1)*; 1Nal = N[C@@H](Cc1cccc2ccccc12)C(=O)O; 2Nal = N[C@@H](Cc1ccc2ccccc2c1)C(=O)O; Fmoc = O=C(OCC1c2ccccc2-c2ccccc21)*; Butanoyl(4-Ph) = O=C(CCCc1ccccc1)*; 2Naphthoyl = O=C(c1ccc2ccccc2c1)*; Hydrocinnamoyl = O=C(CCc1ccccc1)*; X1 = CC(CC(=O)*)c1ccccc1; PhAc = O=C(Cc1ccccc1)*

Key:
[1] = molecular target: T1, pp72^syk (163-265) (Homo sapiens, UniProt P43405); test: C-Syk competitive binding assay, surface plasmon resonance (BIAcore); settings: 270 nM protein; hemiphosphorylated γ-chain ITAM of human FcεRI as ligand; read-out: CSyk IC-50
T1 construct: Assays were run in HBS using 270 nM pp72^syk (163-265)
Protocol: (§1) Binding was measured by competition using surface plasmon resonance (Malmqvist, M. (1993) Current Opinions in Immunology 5, 282-286) as implemented in the BIAcore Biosensor (Pharmacia Biosensor, Piscataway, N.J.). […] Results were compared to binding measured in the absence of competitor and expressed as percent inhibition. IC50values reflect the concentration of inhibitor required to reduce binding by 50%. Specifics of individual assays are described below. All asssays were run in HEPES Buffered Saline (HBS) composed of 10 mM HEPES (pH 7.4)/150 mM NaCl/3.4 mM EDTA/0.05% Surfactant P20at 25° C. and a flow rate of 5 uL min^-1.
A pp72^syk peptide ligand corresponding to a hemiphosphorylated γ-chain ITAM of human Fcε RI [DGVY(PO4)TGLSTRNQETYETLK] was synthesized as part of a larger peptide [Ac-CGGDGVY(PO4)TGLSTRNQETYETLK-NH2 ] and used to generate a C-Syk-sensitive biosensor surface as described above for tandem syk. Assays were run in HBS using 270 nM pp72^syk (163-265)±test inhibitor.

[2] = molecular target: T2, pp60^src (144-251) (Homo sapiens, UniProt P12931); test: Src competitive binding assay, surface plasmon resonance (BIAcore); settings: for IC50: 270 nM protein, hamster Middle-T antigen phosphopeptide as ligand, read-out: Src IC-50
T2 construct: Assays were run in HBS using 270 nM pp60^src (144-251)
T2 sequence (P12931 144-251): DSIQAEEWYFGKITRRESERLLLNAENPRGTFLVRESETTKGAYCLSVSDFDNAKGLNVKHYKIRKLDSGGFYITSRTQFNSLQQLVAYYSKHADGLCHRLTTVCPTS
Protocol: as §1
A p60^src peptide ligand corresponding to the hamster Middle-T antigen [QY(PO4)EEIPI] [SEQ ID NO:22] was synthesized as a part of a larger peptide [Ac-KGGQY(PO4)EEIPI-NH2 ] [SEQ ID NO:23] and used to generate a src-sensitive biosensor surface as described above for tandem ZAP. Assays were run in HBS using 270 nM pp60^src (144-251)±test inhibitor.

[3] = molecular target: T3, pp70^ZAP (1-259) (Homo sapiens, UniProt P43403); test: Tandem ZAP competitive binding assay, surface plasmon resonance (BIAcore); settings: for IC50: read-out: N,CZap IC-50
T3 sequence (P43403 1-259): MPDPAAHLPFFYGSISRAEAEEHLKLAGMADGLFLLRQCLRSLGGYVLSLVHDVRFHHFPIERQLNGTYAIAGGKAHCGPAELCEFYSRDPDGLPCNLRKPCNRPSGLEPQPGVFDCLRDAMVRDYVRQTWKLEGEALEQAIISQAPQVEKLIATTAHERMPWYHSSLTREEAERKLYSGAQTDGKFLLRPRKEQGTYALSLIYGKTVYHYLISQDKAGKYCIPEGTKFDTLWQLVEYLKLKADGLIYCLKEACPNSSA
Protocol: as §1
A pp70^ZAP peptide ligand corresponding to the .zeta.-chain ITAM-1 of the human T-cell receptor [NQLY(PO4)NELNIGRREEY(PO4)DVLD] [SEQ ID NO:20] was synthesized as a part of a larger peptide [Ac-KGGNQLY(PO4)NELNIGRREEY-(PO4)DVLD-NH2 ] [SEQ ID NO:21] and used to generate a ZAP-sensitive biosensor surface. Specifically, a Biosensor Chip CM5was activated with 200 mM EDC/50 mM NHS to generate a surface reactive to primary amines and the ITAM peptide immobilized through the N-terminal lysine. Unreacted sites were blocked with ethanolamine (1M in water) and the chip cleaned of non-covalently bound peptide using 6M guanidine hydrochloride. Assays were run in HBS using 10 nM pp70^ZAP (1-259)±test inhibitor. (The designation "b22" indicates use of a corresponding γ-chain ITAM for the .zeta.-chain ITAM.)

[4] = molecular target: T4, pp72^syk (1-265) (Homo sapiens, UniProt P43405); test: Tandem Syk competitive binding assay, surface plasmon resonance (BIAcore); settings: for IC50 / N,CSyk 1%/Min: 20 nM protein, γ-chain ITAM of human FcεRI as ligand; for IC50: read-out: N,CSyk IC-50
T4 construct: Assays were run in HBS using 20 nM pp72^syk (1-265)
Protocol: as §1
A pp72^syk peptide ligand corresponding to the γ-chain ITAM of human Fcε RI [DGVY(PO4)TGLSTRNQETY(PO4)ETLK] [SEQ ID NO:18] was synthesized as part of a larger peptide [Ac-CGGDGVY(PO4)TGLSTRNQETY-(PO4)ETLK-NH2] [SEQ ID NO:19] and used to generate a Syk-sensitive biosensor surface. Specifically, a Biosensor Chip CM5was activated with 200 mM ethyl-3-(3-dimethylaminopropyl)-carbodiimide hydrochloride (EDC)/50 mM N-hydroxysuccinimide (NHS) to generate a surface reactive to primary amines; treated with ethylenediamine to generate a surface rich in primary amines; activated with m-maleimidobenzoyl-N-hydroxysuccinimide ester (sulfo-MBS; 50 mM in 25 mM NaHCO3) to generate a surface reactive to free thiols; and the ITAM peptide immobilized through the N-terminal cysteine. Unreacted sites were blocked with β-mercaptoethanol and the chip cleaned of noncovalently bound peptide using 6M guanidine hydrochloride. Assays were run in HBS using 20 nM pp72^syk (1-265)±test inhibitor.

[5] = 10 nM protein, ζ-chain ITAM-1 of human T-cell receptor as ligand

Row | SMILES | IC50 [1] [µM] | IC50 [2] [µM] | IC50 [3, 5] [µM] | IC50 [4] | also measured
1 | CC(=O)N[C@H](Cc1ccccc1)C(=O)N[C@@H](Cc1cc([N+](=O)[O-])c(O)c([N+](=O)[O-])c1)C(=O)N[C@@H](CCC(=O)O)C(=O)N[C@H](C(=O)N[C@@H](CC(C)C)C(N)=O)[C@@H](C)O (Ac-[dF][Tyr(3,5-(NO2)2)]ETL-NH2) | 50 | 500 | > 100 | – | –
2 | CC(C)C[C@H](NC(=O)[C@@H](NC(=O)[C@H](CCC(=O)O)NC(=O)[C@H](Cc1cc([N+](=O)[O-])c(O)c([N+](=O)[O-])c1)NC(=O)CC(c1ccccc1)c1ccccc1)[C@@H](C)O)C(N)=O ({Propanoyl(3,3-Ph2)}-[Tyr(3,5-(NO2)2)]ETL-NH2) | 15 | > 1000 | – | 100 µM | N,CZap inhibition ([3]; @ 1000 (μM)): ni
3 | CC(C)C[C@H](NC(=O)[C@@H](NC(=O)[C@H](CCC(=O)O)NC(=O)[C@H](Cc1cc([N+](=O)[O-])c(O)c([N+](=O)[O-])c1)NC(=O)Cc1ccccc1)[C@@H](C)O)C(N)=O (PhAc-[Tyr(3,5-(NO2)2)]ETL-NH2) | 70 | > 1000 | > 1000 | > 1000 µM | –
4 | CC(=O)N[C@@H](Cc1ccc2ccccc2c1)C(=O)N[C@@H](Cc1cc([N+](=O)[O-])c(O)c([N+](=O)[O-])c1)C(=O)N[C@@H](CCC(=O)O)C(=O)N[C@H](C(=O)N[C@@H](CC(C)C)C(N)=O)[C@@H](C)O (Ac-[2Nal][Tyr(3,5-(NO2)2)]ETL-NH2) | > 500 | – | > 500 | > 100 µM | –
5 | CC(=O)N[C@@H](Cc1ccccc1)C(=O)N[C@@H](Cc1cc([N+](=O)[O-])c(O)c([N+](=O)[O-])c1)C(=O)N[C@@H](CCC(=O)O)C(=O)N[C@H](C(=O)N[C@@H](CC(C)C)C(N)=O)[C@@H](C)O (Ac-F[Tyr(3,5-(NO2)2)]ETL-NH2) | 200 | – | > 1000 | > 100 µM | –
6 | CC(C)C[C@H](NC(=O)[C@@H](NC(=O)[C@H](CCC(=O)O)NC(=O)[C@H](Cc1cc([N+](=O)[O-])c(O)c([N+](=O)[O-])c1)NC(=O)CCc1ccccc1)[C@@H](C)O)C(N)=O (Hydrocinnamoyl-[Tyr(3,5-(NO2)2)]ETL-NH2) | 11 | 410 | > 100 | 460 µM | –
7 | CC(C)C[C@H](NC(=O)[C@@H](NC(=O)[C@H](CCC(=O)O)NC(=O)[C@H](Cc1cc([N+](=O)[O-])c(O)c([N+](=O)[O-])c1)NC(=O)c1ccc2ccccc2c1)[C@@H](C)O)C(N)=O (2Naphthoyl-[Tyr(3,5-(NO2)2)]ETL-NH2) | 35 | > 1000 | – | 380 µM | N,CSyk 1%/Min [4]: 67 µM; N,CZap inhibition ([3]; @ 100 (μM)): ni
8 | CC(C)C[C@H](NC(=O)[C@@H](NC(=O)[C@H](CCC(=O)O)NC(=O)[C@H](Cc1cc([N+](=O)[O-])c(O)c([N+](=O)[O-])c1)NC(=O)Cc1ccc2ccccc2c1)[C@@H](C)O)C(N)=O ({Acetyl(2-naphthyl)}-[Tyr(3,5-(NO2)2)]ETL-NH2) | 20 | 500 | > 100 | – | N,CSyk percent inhibition ([4]; @ 50 (μM)): 30%
9 | CC(C)C[C@H](NC(=O)[C@@H](NC(=O)[C@H](CCC(=O)O)NC(=O)[C@H](Cc1cc([N+](=O)[O-])c(O)c([N+](=O)[O-])c1)NC(=O)OCC1c2ccccc2-c2ccccc21)[C@@H](C)O)C(N)=O [ETLNH2] (Fmoc-[Tyr(3,5-(NO2)2)]ETL-NH2) | 30 | > 1000 | 350 | 80 µM and 81 µM | IC50 ([3]; b22: corresponding γ-chain ITAM used for the ζ-chain ITAM): 20 µM
10 | CC(C)C[C@H](NC(=O)[C@@H](NC(=O)[C@H](CCC(=O)O)NC(=O)[C@H](Cc1cc([N+](=O)[O-])c(O)c([N+](=O)[O-])c1)NC(=O)CC(C)c1ccccc1)[C@@H](C)O)C(N)=O (some centres unmarked) (X1-[Tyr(3,5-(NO2)2)]ETL-NH2) | – | – | – | – | N,CSyk 1%/Min [4]: 14 µM
11 | CC(C)C[C@H](NC(=O)[C@@H](NC(=O)[C@H](CCC(=O)O)NC(=O)[C@H](Cc1cc([N+](=O)[O-])c(O)c([N+](=O)[O-])c1)NC(=O)Cc1cccc2ccccc12)[C@@H](C)O)C(N)=O ({Acetyl(1-naphthyl)}-[Tyr(3,5-(NO2)2)]ETL-NH2) | 24 | > 1000 | > 100 | 100 µM | –
12 | CC(=O)N[C@@H](Cc1cccc2ccccc12)C(=O)N[C@@H](Cc1cc([N+](=O)[O-])c(O)c([N+](=O)[O-])c1)C(=O)N[C@@H](CCC(=O)O)C(=O)N[C@H](C(=O)N[C@@H](CC(C)C)C(N)=O)[C@@H](C)O (Ac-[1Nal][Tyr(3,5-(NO2)2)]ETL-NH2) | 200 | > 500 | > 100 | 800 µM | –
13 | CC(C)C[C@H](NC(=O)[C@@H](NC(=O)[C@H](CCC(=O)O)NC(=O)[C@H](Cc1cc([N+](=O)[O-])c(O)c([N+](=O)[O-])c1)NC(=O)CC1c2ccccc2-c2ccccc21)[C@@H](C)O)C(N)=O ({Acetyl(9-fluorenyl)}-[Tyr(3,5-(NO2)2)]ETL-NH2) | 26 | 710 | > 100 | 50 µM | –
14 | CC(C)C[C@H](NC(=O)CNC(=O)[C@@H](NC(=O)[C@H](Cc1cc([N+](=O)[O-])c(O)c([N+](=O)[O-])c1)NC(=O)OCC1c2ccccc2-c2ccccc21)[C@@H](C)O)C(N)=O [TGLNH2] (Fmoc-[Tyr(3,5-(NO2)2)]TGL-NH2) | – | – | – | – | N,CSyk percent inhibition ([4]; @ 23 (μM)): 35%
15 | CC(C)C[C@H](NC(=O)[C@@H](NC(=O)[C@H](CCC(=O)O)NC(=O)[C@H](Cc1cc([N+](=O)[O-])c(O)c([N+](=O)[O-])c1)NC(=O)CCCc1ccccc1)[C@@H](C)O)C(N)=O ({Butanoyl(4-Ph)}-[Tyr(3,5-(NO2)2)]ETL-NH2; N-terminus assumed) | – | – | – | – | N,CSyk 1%/Min [4]: 48 µM
16 | CC(C)C[C@H](NC(=O)[C@@H](NC(=O)[C@H](CC(=O)O)NC(=O)[C@H](Cc1cc([N+](=O)[O-])c(O)c([N+](=O)[O-])c1)NC(=O)OCC1c2ccccc2-c2ccccc21)C(C)C)C(N)=O [DVLNH2] (Fmoc-[Tyr(3,5-(NO2)2)]DVL-NH2) | – | – | > 100 | 24 µM and 30 µM | Src percent inhibition ([2]; @ 100 (μM)): 25%
17 | CC(C)C[C@H](NC(=O)[C@H](CCC(=O)O)NC(=O)[C@H](CC(N)=O)NC(=O)[C@H](Cc1cc([N+](=O)[O-])c(O)c([N+](=O)[O-])c1)NC(=O)OCC1c2ccccc2-c2ccccc21)C(N)=O [NELNH2] (Fmoc-[Tyr(3,5-(NO2)2)]NEL-NH2) | – | – | – | – | N,CSyk percent inhibition ([4]; @ 50 (μM)): 15%; Src percent inhibition ([2]; @ 50 (μM)): 5%; N,CZap percent inhibition ([3]; @ 50 (μM)): 10%
